Source: patent US10766869B2, “Triazoles for the treatment of demyelinating dieases” (Vertex Pharmaceuticals Incorporated, priority 2015, dated 2020)
Read-outs that look alike come from different tables or passages of the source.

Tested on: primary rat mixed cortical cells
Assay: In vitro myelination assay (MBP positive myelin strands, fold myelin pixels above background)
Format: cell-based
Settings: Rattus norvegicus; for fold induction at 1 µM: 1.0 μM compound; for fold induction at 10 µM: 10.0 μM compound
From the text: In Vitro Myelination Assay
Compounds were screened for their ability to induce myelination using a primary rat mixed cortical cell culture assay, which contains neurons, oligodendrocyte precursor cells, oligodendrocytes, astrocytes and microglia. The assay quantifies myelination by measuring myelin basic protein (MBP) immunofluorescent positive myelin strands from images taken using a Cellomics Array Scan (model Arrayscan VTI HCS Reader) or a Molecular Devices Image Xpress (model IXM XL) high content imager. The myelin strands were quantitated using a custom created myelin detection software program. Test compounds were dissolved in DMSO to make a 10 mM initial stock solution. Dilutions were made in myelination medium to obtain the final solutions for the assay and were tested in primary rat mixed cortical cells at selected doses.
Primary rat mixed cortical cells were prepared from harvested cerebral cortices from postnatal day 1 (P1) rats (P1 Rat CD® IGS pups) were purchased from Charles River) in Complete Dissociation Medium, wherein the meninges were removed and the cortical tissue chopped with a razor blade into ˜1 mm^3 pieces. Tissue from 1-3 pups was collected and placed into 15 ml conical tubes in a total volume of 5 ml of Complete Dissociation Medium. Activated papain (3 ml) was added to each 15 ml conical tube and tissue was incubated at 37° C. for 30 minutes. After the 30 minute incubation, DNase (Sigma D4527; 75 μl of a 1 mg/ml stock) was added to each tube, followed by mechanical trituration using a 2 ml serological pipette and autopipettor to gently dissociate the tissue. Following trituration, larger tissue pieces were allowed to settle by gravity, and the supernatant containing dissociated cells was transferred to a 50 ml conical tube with 4 ml of trypsin inhibitor. Cells were pelleted by centrifugation, resuspended in myelination medium and filtered through a 40 μm filter. Cells were then seeded in 96-well plates (BD Biosciences, Black, PDL-coated, Cat. No. 356640) at 87,500-95,000 cells/well in a final volume of 200 μl of Myelination Medium in the presence or absence of compound and cultured for 14 days in a humidified 37° C. incubator with 5% CO2. Half the medium was removed and replaced with fresh medium containing 1× compound on days 6 and 10. Using a Biotek automatic plate washer (model Biomek® FXP Laboratory Automation Workstation), cells were fixed with 4% paraformaldehyde on day 14, washed with PBS and blocked in 5% normal goat serum (Vector Laboratories, S-1000) in 0.1% PBS-TritonX-100 (PBST) for 1 hour. Cells were stained with 1:500 anti-MBP (Covance, cat # SMI99) primary antibody in 1% normal goat serum in 0.1% PBST for 2 hours at room temperature followed by 2 washes with PBST. A final incubation in secondary antibody (1:1000, Invitrogen, Alexa-488 anti-mouse IgG2b) and 1:10,000 Hoechst dye in 1% normal goat serum in 0.1% PBST was performed for 2 hours at room temperature. Plates were washed with PBS and then scanned on a Cellomics Array Scan using a 10× objective (25 images per well) or the Image Xpress using a 10× objective (9 image per well). Images were analyzed using Vertex myelin detection software (described below) to quantify total MBP myelin pixels per well. Fold myelin pixels above background at two concentrations (1.0 μM and 10.0 μM) relative to baseline of no added compound are reported below in Table 4. Standard deviation for each compound concentration was calculated using all replicates and using a standard deviation formula commonly used in the art.
One of skill in the art would recognize that for this type of primary neuronal mixed cell assay variability between different assay runs is to be expected even though the protocol is the same for each assay run. For instance, variability may be due to small differences in cell viability, cell density, age of the animals, etc.
Vertex Myelin Detection Software: […]

[1] = relative to baseline of no added compound, read-out: Fold myelin pixels above background, 1.0 μM
[2] = relative to baseline of no added compound, read-out: Fold myelin pixels above background, 10.0 μM
[3] = relative to baseline of no added compound, read-out: Fold myelin pixels above background
[4] = read-out: Fold myelin pixels above background relative to baseline of no added compound

Row | SMILES | fold induction at 1 µM [1] | fold induction at 10 µM [2] | fold induction at 1 µM [3] | fold induction at 10 µM [3] | also measured
1 | Cc1cc(Nc2ncn(-c3cc(F)cc(F)c3)n2)cc(N2CCN(C)C3(COC3)C2)c1 [Compound 349, 1-(3,5-difluorophenyl)-N-[3-methyl-5-(9-methyl-2-oxa-6,9-diazaspiro[3.5]nonan-6-yl)phenyl]-1,2,4-triazol-3-amine] | 10 to 100 | 100 to 1000 |  |  | 
2 | Cc1cc(Nc2ncn(-c3cc(F)cc(F)c3)n2)cc(N2CCN(C(=O)C3CC3)CC2)c1 [Compound 458] |  |  | 1000 to 10000 | 100 to 1000 | 
3 | CCOC(=O)N1CCN(c2cc(C)cc(Nc3ncn(-c4cc(F)cc(F)c4)n3)c2)CC1 [Compound 196, ethyl 4-[3-[[1-(3,5-difluorophenyl)-1,2,4-triazol-3-yl]amino]-5-methyl-phenyl]piperazine-1-carboxylate] | ≤ 1 | ≤ 1 |  |  | 
4 | Cc1cc(Nc2ncn(-c3cc(F)cc(F)c3)n2)cc(N2C[C@@H]3C[C@H]2CN3C2COC2)c1 [Compound 34, 1-(3,5-difluorophenyl)-N-[3-methyl-5-[(1S,4S)-2-(oxetan-3-yl)-2,5-diazabicyclo[2.2.1]heptan-5-yl]phenyl]-1,2,4-triazol-3-amine] | 100 to 1000 | ≤ 1 |  |  | 
5 | Cc1cc(Nc2ncn(-c3cc(F)cc(F)c3)n2)cc(N2CCNC(C(F)(F)F)C2)c1 (stereo not shown) [Compound 552, 1-(3,5-difluorophenyl)-N-[3-methyl-5-[3-(trifluoromethyl)piperazin-1-yl]phenyl]-1,2,4-triazol-3-amine] |  |  | 10 to 100 | 10 to 100 | 
6 | Cc1cc(Nc2ncn(-c3ccnc(Cl)c3)n2)cc(N2CCCC2)c1 [Compound 42, 1-(2-chloro-4-pyridyl)-N-(3-methyl-5-pyrrolidin-1-yl-phenyl)-1,2,4-triazol-3-amine] | 10 to 100 | 100 to 1000 |  |  | 
7 | Cc1cc(Nc2ncn(-c3cccc(F)c3)n2)cc(N2CCC(C3COC3)CC2)c1 [Compound 522, 1-(3-fluorophenyl)-N-[3-methyl-5-[4-(oxetan-3-yl)-1-piperidyl]phenyl]-1,2,4-triazol-3-amine] |  |  | 100 to 1000 | 100 to 1000 | 
8 | Cc1cc(Nc2ncn(-c3cc(F)cc(F)c3)n2)cc(N2CCC(C3COC3)CC2)c1 [Compound 216, 1-(3,5-difluorophenyl)-N-[3-methyl-5-[4-(oxetan-3-yl)-1-piperidyl]phenyl]-1,2,4-triazol-3-amine] | 1 to 10 | 10 to 100 |  |  | 
9 | CS(=O)(=O)c1cc(Nc2ncn(-c3cc(F)cc(F)c3)n2)cc(N2CCN(C3COC3)CC2)c1 [Compound 344, 1-(3,5-difluorophenyl)-N-[3-methylsulfonyl-5-[4-(oxetan-3-yl)piperazin-1-yl]phenyl]-1,2,4-triazol-3-amine] | 100 to 1000 | 10 to 100 |  |  | 
10 | Cc1cc(Nc2ncn(-c3cc(F)cc(F)c3)n2)cc(N2CCN3C(=O)CCC3C2)c1 (stereo not shown) [Compound 561, 2-[3-[[1-(3,5-difluorophenyl)-1,2,4-triazol-3-yl]amino]-5-methyl-phenyl]-1,3,4,7,8,8a-hexahydropyrrolo[1,2-a]pyrazin-6-one] |  |  | 100 to 1000 | 10 to 100 | 
11 | COC1CCCN(c2cc(C)cc(Nc3ncn(-c4cc(F)cc(F)c4)n3)n2)C1 (stereo not shown) [Compound 764, N-[1-(3,5-difluorophenyl)-1,2,4-triazol-3-yl]-6-(3-methoxy-1-piperidyl)-4-methyl-pyridin-2-amine] |  |  | 1 to 10 | 1 to 10 | 
12 | Cc1cc(Nc2ncn(-c3cc(F)cc(F)c3)n2)cc(N2CCC(OC3CCOC3)CC2)c1 (stereo not shown) [Compound 1014, 1-(3,5-difluorophenyl)-N-[3-methyl-5-(4-tetrahydrofuran-3-yloxy-1-piperidyl)phenyl]-1,2,4-triazol-3-amine] |  |  |  |  | fold induction at 1 µM [4]: 1 to 10; fold induction at 10 µM [4]: 1 to 10
13 | Cc1cc(Nc2ncn(-c3ccc(C#N)cc3)n2)cc(N2CCN(C)CC2)c1 [Compound 81, 4-[3-[3-methyl-5-(4-methylpiperazin-1-yl)anilino]-1,2,4-triazol-1-yl]benzonitrile] | 1 to 10 | ≤ 1 |  |  | 
14 | Cc1cc(Nc2ncn(-c3cc(F)cc(F)c3)n2)cc(OC2CCN(C3COC3)CC2)c1 [Compound 433, 1-(3,5-difluorophenyl)-N-[3-methyl-5-[[1-(oxetan-3-yl)-4-piperidyl]oxy]phenyl]-1,2,4-triazol-3-amine] |  |  | 100 to 1000 | 100 to 1000 | 
15 | [2H]C1(N2CCN(c3cc(C)cc(Nc4ncn(-c5ccccc5)n4)c3)CC2)COC1 [Compound 898, N-[3-[4-(3-deuteriooxetan-3-yl)piperazin-1-yl]-5-methyl-phenyl]-1-phenyl-1,2,4-triazol-3-amine] |  |  |  |  | fold induction at 1 µM [4]: 10 to 100; fold induction at 10 µM [4]: ≤ 1
16 | Cc1cc(Nc2ncn(-c3ccccc3Cl)n2)cc(N2CCN(C3COC3)CC2)c1 [Compound 446, 1-(2-chlorophenyl)-N-[3-methyl-5-[4-(oxetan-3-yl)piperazin-1-yl]phenyl]-1,2,4-triazol-3-amine] |  |  | 1 to 10 | 1000 to 10000 | 
17 | Cc1cc(Nc2ncn(-c3cc(F)cc(F)c3)n2)cc(N2CCN(C(=O)C3CCOCC3)CC2)c1 [Compound 991, [4-[3-[[1-(3,5-difluorophenyl)-1,2,4-triazol-3-yl]amino]-5-methyl-phenyl]piperazin-1-yl]-tetrahydropyran-4-yl-methanone] |  |  |  |  | fold induction at 1 µM [4]: 10 to 100; fold induction at 10 µM [4]: 1 to 10
18 | CCc1cc(Nc2ncn(-c3cc(C)ccc3F)n2)cc(N2CCN(C3COC3)CC2)c1 [Compound 338, N-[3-ethyl-5-[4-(oxetan-3-yl)piperazin-1-yl]phenyl]-1-(2-fluoro-5-methyl-phenyl)-1,2,4-triazol-3-amine] | 1 to 10 | 10 to 100 |  |  | 
19 | Cc1cc(Nc2ncn(-c3cc(F)cc(F)c3)n2)cc(C2CCN(C3COC3)C2)c1 (stereo not shown) [Compound 25, 1-(3,5-difluorophenyl)-N-[3-methyl-5-[1-(oxetan-3-yl)pyrrolidin-3-yl]phenyl]-1,2,4-triazol-3-amine] | 1000 to 10000 | 1000 to 10000 |  |  | 
20 | Cc1cc(Nc2ncn(-c3cncc(F)c3)n2)cc(N2CCN(C)CC2)c1 [Compound 387, 1-(5-fluoro-3-pyridyl)-N-[3-methyl-5-(4-methylpiperazin-1-yl)phenyl]-1,2,4-triazol-3-amine] |  |  | 10 to 100 | 100 to 1000 | 
21 | Cc1cc(Nc2ncn(-c3cc(F)cc(F)c3)n2)nc(N2CCC(C)(O)CC2)c1 [Compound 569, 1-[6-[[1-(3,5-difluorophenyl)-1,2,4-triazol-3-yl]amino]-4-methyl-2-pyridyl]-4-methyl-piperidin-4-ol] |  |  | 1 to 10 | 10 to 100 | 
22 | CC(=O)N1CCCC(c2cc(C)cc(Nc3ncn(-c4ccccc4)n3)c2)C1 (stereo not shown) [Compound 117, 1-[3-[3-methyl-5-[(1-phenyl-1,2,4-triazol-3-yl)amino]phenyl]-1-piperidyl]ethanone] | 1000 to 10000 | ≤ 1 |  |  | 
23 | Clc1cncc(-n2cnc(Nc3cc(C4CC4)cc(N4CCN(C5COC5)CC4)c3)n2)c1 [Compound 134, 1-(5-chloro-3-pyridyl)-N-[3-cyclopropyl-5-[4-(oxetan-3-yl)piperazin-1-yl]phenyl]-1,2,4-triazol-3-amine] | 100 to 1000 | 10 to 100 |  |  | 
